Consider one cell line from the supplement of paper PMC10307832.

What all share (test): relative viability (nuclei count vs DMSO), 5 days (fraction); higher = more cells survive
Compound in test [1]: CC(C)N(CCCNC(=O)Nc1ccc(C(C)(C)C)cc1)C[C@H]1O[C@@H](n2ccc3c(N)ncnc32)[C@H](O)[C@@H]1O + CC(=O)Nc1cccc(-n2c(=O)n(C3CC3)c(=O)c3c(Nc4ccc(I)cc4F)n(C)c(=O)c(C)c32)c1 [Trametinib] (partner 0.02 µM)
In a few lines:
(§1)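 The day after seeding in 1536-well plates, lung cancer cell lines were treated by pin tool with a single drug, or with a fixed anchor-drug dose together with five library-drug doses (not always all listed) in √10 steps. After 5 days, a combined fix-and-stain solution (final 0.05% Triton X-100, 1% formaldehyde, 1 ug/ml Hoechst) was added. Nuclei counted on 4× images gave relative viability as treated counts over vehicle counts, reported as the median of duplicate plates.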

Compound in the test “Shikonin + Lapatinib”: CC(C)=CC[C@@H](O)C1=CC(=O)c2c(O)ccc(O)c2C1=O [Shikonin] + CS(=O)(=O)CCNCc1ccc(-c2ccc3ncnc(Nc4ccc(OCc5cccc(F)c5)c(Cl)c4)c3c2)o1 [Lapatinib] (partner 2 µM)
In a few lines: as §1

Compound in test [2]: CC(C)N(CCCNC(=O)Nc1ccc(C(C)(C)C)cc1)C[C@H]1O[C@@H](n2ccc3c(N)ncnc32)[C@H](O)[C@@H]1O + CC1(C)CCC(c2ccc(Cl)cc2)=C(CN2CCN(c3ccc(C(=O)NS(=O)(=O)c4ccc(N[C@H](CCN5CCOCC5)CSc5ccccc5)c(S(=O)(=O)C(F)(F)F)c4)cc3)CC2)C1 [Navitoclax] (partner 0.5 µM)
In a few lines:
as §1

Compound in test [3]: CC(C)N(CCCNC(=O)Nc1ccc(C(C)(C)C)cc1)C[C@H]1O[C@@H](n2ccc3c(N)ncnc32)[C@H](O)[C@@H]1O + Nc1nc2[nH]cc(CCc3ccc(C(=O)N[C@@H](CCC(=O)O)C(=O)O)cc3)c2c(=O)[nH]1 [Pemetrexed] (partner 0.2 µM)
In a few lines: as §1

Regarding UMC-11, the relative viability in test [1] (first compound 0.08 µM) was determined as 0.691; in test [1] (first compound 0.253 µM), 0.541; in test [1] (first compound 0.8 µM), 0.588; in test [1] (first compound 2.53 µM), 0.789; in test [1] (first compound 8 µM) it was 0.796; in the test with Shikonin + Lapatinib (first compound 0.01 µM), 1. Besides, the relative viability in the test with Shikonin + Lapatinib (first compound 0.1 µM) was 1.08; with Shikonin + Lapatinib (first compound 0.3162 µM) it was 1; with Shikonin + Lapatinib (first compound 1 µM), 1.12; in test [2] (first compound 0.08 µM), 0.296; in test [2] (first compound 0.253 µM) it was 0.329; in test [2] (first compound 0.8 µM) it was 0.319. The relative viability in test [2] (first compound 2.53 µM) came to 0.302; in test [2] (first compound 8 µM), 0.294; in test [3] (first compound 0.08 µM), 0.803; in test [3] (first compound 0.253 µM), 0.748; in test [3] (first compound 0.8 µM), 0.791; in test [3] (first compound 2.53 µM), 0.79. Besides, the relative viability in test [3] (first compound 8 µM) is 0.806.
